Source: patent publication US9708316B2 (BRISTOL-MYERS SQUIBB COMPANY, priority 2014, dated 2017)

Key:
[1] = target: HIS-TGFβR2 WT (Homo sapiens, UniProt P37173); experiment: HTRF probe-displacement assay, HIS-TGFβR2 WT; type: binding
[2] = target: T1, HIS-TGFβR1 T204D (Homo sapiens, UniProt P36897, T204D); experiment: HTRF probe-displacement assay, HIS-TGFβR1 T204D; type: binding; conditions: read-out: TGFβR1 (μM) IC50
T1 sequence (P36897 34-503 T204D): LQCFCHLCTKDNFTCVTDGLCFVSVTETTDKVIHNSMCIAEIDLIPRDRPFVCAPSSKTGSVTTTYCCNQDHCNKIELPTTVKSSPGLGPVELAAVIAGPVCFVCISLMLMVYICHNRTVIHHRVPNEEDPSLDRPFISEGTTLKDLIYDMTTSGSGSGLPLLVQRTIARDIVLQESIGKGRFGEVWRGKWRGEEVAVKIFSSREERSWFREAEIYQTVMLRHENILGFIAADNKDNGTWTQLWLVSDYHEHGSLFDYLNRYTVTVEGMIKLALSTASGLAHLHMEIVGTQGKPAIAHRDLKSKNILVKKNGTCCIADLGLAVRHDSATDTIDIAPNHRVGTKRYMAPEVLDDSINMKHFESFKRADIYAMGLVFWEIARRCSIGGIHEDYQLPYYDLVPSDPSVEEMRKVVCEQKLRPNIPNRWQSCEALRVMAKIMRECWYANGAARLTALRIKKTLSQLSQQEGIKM

Chain of HIS-TGFβR2 WT (P37173 23-567): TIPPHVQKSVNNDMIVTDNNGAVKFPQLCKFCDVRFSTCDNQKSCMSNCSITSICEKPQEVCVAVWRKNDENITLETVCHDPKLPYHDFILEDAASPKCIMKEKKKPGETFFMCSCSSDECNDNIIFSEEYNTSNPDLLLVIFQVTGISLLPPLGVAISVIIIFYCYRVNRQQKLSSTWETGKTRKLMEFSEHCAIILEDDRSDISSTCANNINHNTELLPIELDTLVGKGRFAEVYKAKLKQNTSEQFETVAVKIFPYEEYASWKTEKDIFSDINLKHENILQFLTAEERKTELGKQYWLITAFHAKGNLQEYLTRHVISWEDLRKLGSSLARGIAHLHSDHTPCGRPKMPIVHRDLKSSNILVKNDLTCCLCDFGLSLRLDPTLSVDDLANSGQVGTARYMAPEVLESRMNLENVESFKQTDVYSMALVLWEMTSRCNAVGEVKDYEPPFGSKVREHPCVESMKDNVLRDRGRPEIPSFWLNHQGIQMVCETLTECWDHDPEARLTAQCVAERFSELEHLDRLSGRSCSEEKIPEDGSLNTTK

| Compound | IC50 [1] | IC50 [2] |
| --- | --- | --- |
| COc1ccnc2c(-c3ccc(F)cn3)c(-c3ccnc(NC(C)=O)c3)[nH]c12 [Example 268, N-(4-(3-(5-Fluoropyridin-2-yl)-7-methoxy-1H-pyrrolo[3,2-b]pyridin-2-yl)pyridin-2-yl)acetamide] | 2.45 µM | 0.005 µM |
| COC(=O)c1ccnc2c(-c3ccc(F)cn3)c(-c3ccnc(NC(C)=O)c3)[nH]c12 [Example 71, Methyl 2-(2-acetamidopyridin-4-yl)-3-(5-fluoropyridin-2-yl)-1H-pyrrolo[3,2-b]pyridine-7-carboxylate] | 4.38 µM | 0.27 µM |
| COc1ccc(-c2c(-c3ccnc(NC(=O)C4CC4)c3)[nH]c3cccnc23)cn1 [Example 53, N-{4-[3-(6-Methoxypyridin-3-yl)-1H-pyrrolo[3,2-b]pyridin-2-yl]pyridin-2-yl}cyclopropanecarboxamide] | 0.005 µM | 0.002 µM |
| CC(=O)Nc1cc(-c2[nH]c3cc(Cl)cnc3c2-c2ccc(F)cn2)ccn1 [Example 42, N-{4-[6-Chloro-3-(5-fluoropyridin-2-yl)-1H-pyrrolo[3,2-b]pyridin-2-yl]pyridin-2-yl}acetamide] | 0.46 µM | 0.004 µM |
| COc1ccc(-c2c(-c3ccnc(NC(C)=O)c3)[nH]c3c(C(C)(C)O)ccnc23)cn1 [Example 299, N-(4-(7-(2-Hydroxypropan-2-yl)-3-(6-methoxypyridin-3-yl)-1H-pyrrolo[3,2-b]pyridin-2-yl)pyridin-2-yl)acetamide] | 0.038 µM | 0.002 µM |
| CC(=O)Nc1cc(-c2[nH]c3c(C4CCN(C)CC4)ccnc3c2-c2cccc(C)n2)ccn1 [Example 138, N-{4-[7-(1-Methylpiperidin-4-yl)-3-(6-methylpyridin-2-yl)-1H-pyrrolo[3,2-b]pyridin-2-yl]pyridin-2-yl}acetamide] | > 15 µM | 0.2 µM |
| [2H]C([2H])([2H])Oc1ccc(-c2c(-c3ccnc(NC(C)=O)c3)[nH]c3cc(Cl)cnc23)nc1 [Example 105, N-(4-(6-Chloro-3-(5-(methoxy-d3)pyridin-2-yl)-1H-pyrrolo[3,2-b]pyridin-2-yl)pyridin-2-yl)acetamide] | > 15 µM | 0.005 µM |
| COc1ccc(-c2c(-c3ccnc(NC(C)=O)c3)[nH]c3cc(C(O)C(F)(F)C(N)=O)cnc23)nc1 (stereo not shown) [Example 295, 3-(2-(2-Acetamidopyridin-4-yl)-3-(5-methoxypyridin-2-yl)-1H-pyrrolo[3,2-b]pyridin-6-yl)-2,2-difluoro-3-hydroxypropanamide] | > 15 µM | 0.001 µM |
| COc1ccnc2c(-c3cccc(C)n3)c(-c3ccnc(NC(C)=O)c3)[nH]c12 [Example 257, N-(4-(7-Methoxy-3-(6-methylpyridin-2-yl)-1H-pyrrolo[3,2-b]pyridin-2-yl)pyridin-2-yl)acetamide] | 6.21 µM | 0.003 µM |
| CC(=O)Nc1cc(-c2[nH]c3c(C(C)F)ccnc3c2-c2cccc(C(F)F)n2)ccn1 (stereo not shown) [Example 233, N-(4-(3-(6-(Difluoromethyl)pyridin-2-yl)-7-(1-fluoroethyl)-1H-pyrrolo[3,2-b]pyridin-2-yl)pyridin-2-yl)acetamide] | 4.06 µM | 0.0014 µM |
| COc1cnc2c(-c3nc(C(F)(F)F)cs3)c(-c3ccnc(NC(C)=O)c3)[nH]c2c1 [Example 229, N-(4-(6-Methoxy-3-(4-(trifluoromethyl)thiazol-2-yl)-1H-pyrrolo[3,2-b]pyridin-2-yl)pyridin-2-yl)acetamide] | 10.9 µM | 0.0014 µM |
| CC(=O)Nc1cc(-c2[nH]c3cccnc3c2-c2ccc3[nH]ccc3c2)ccn1 [Example 20, N-{4-[3-(1H-Indol-5-yl)-1H-pyrrolo[3,2-b]pyridin-2-yl]pyridin-2-yl}acetamide] | 1.69 µM | 0.005 µM |
| COc1ccc(-c2c(-c3ccnc(NC(C)=O)c3)[nH]c3cc(N(C)CCO)cnc23)nc1 [Example 165, N-(4-(6-((2-Hydroxyethyl)(methyl)amino)-3-(5-methoxypyridin-2-yl)-1H-pyrrolo[3,2-b]pyridin-2-yl)pyridin-2-yl)acetamide] | > 15 µM | 0.0353 µM |
| COc1ccc(-c2c(-c3ccnc(NC(=O)CN4CC[C@H](O)C4)c3)[nH]c3cc(OC)cnc23)nc1 [Example 121, 2-[(3S)-3-Hydroxypyrrolidin-1-yl]-N-{4-[6-methoxy-3-(5-methoxypyridin-2-yl)-1H-pyrrolo[3,2-b]pyridin-2-yl]pyridin-2-yl}acetamide] | > 15 µM | 0.001 µM |
| CCOc1cnc2c(-c3ccc(OC)cn3)c(-c3ccnc(NC(C)=O)c3)[nH]c2c1 [Example 96, N-(4-(6-Ethoxy-3-(5-methoxypyridin-2-yl)-1H-pyrrolo[3,2-b]pyridin-2-yl)pyridin-2-yl)acetamide] | > 15 µM | 0.001 µM |
| CC(=O)Nc1cc(-c2[nH]c3cc(Cl)cnc3c2-c2nc(C)ns2)ccn1 [Example 179, N-(4-(6-chloro-3-(3-methyl-1,2,4-thiadiazol-5-yl)-1H-pyrrolo[3,2-b]pyrdin-2-yl)pyridin-2-yl)acetamide] | > 15 µM | 0.058 µM |
| CC(=O)Nc1cc(-c2[nH]c3cccnc3c2-c2nc(C(F)F)cs2)ccn1 [Example 200, N-(4-(3-(4-(Difluoromethyl)thiazol-2-yl)-1H-pyrrolo[3,2-b]pyridin-2-yl)pyridin-2-yl)acetamide] | 0.548 µM | 0.0007 µM |
| COc1ccc(-c2c(-c3ccnc(NC(=O)CN4CCN(CCO)CC4)c3)[nH]c3cccnc23)cn1 [Example 288, 2-(4-(2-Hydroxyethyl)piperazin-1-yl)-N-(4-(3-(6-methoxypyridin-3-yl)-1H-pyrrolo[3,2-b]pyridin-2-yl)pyridin-2-yl)acetamide] | 0.487 µM | 0.002 µM |
| COc1ccc(-c2c(-c3ccnc(NC(=O)CN(C)C)c3)[nH]c3cc(OC)cnc23)nc1 [Example 115, 2-(Dimethylamino)-N-{4-[6-methoxy-3-(5-methoxypyridin-2-yl)-1H-pyrrolo[3,2-b]pyridin-2-yl]pyridin-2-yl}acetamide] | 8.68 µM | 0.001 µM |
| COc1cnc2c(-c3cccc(C)n3)c(-c3ccnc(NC(=O)CN(C)C)c3)[nH]c2c1 [Example 116, 2-(Dimethylamino)-N-{4-[6-methoxy-3-(6-methylpyridin-2-yl)-1H-pyrrolo[3,2-b]pyridin-2-yl]pyridin-2-yl}acetamide] | 7.35 µM | 0.005 µM |
| CC(=O)Nc1cc(-c2[nH]c3cc(Cl)cnc3c2-c2nc(C#N)cs2)ccn1 [Example 177, N-(4-(6-Chloro-3-(4-cyanothiazol-2-yl)-1H-pyrrolo[3,2-b]pyridin-2-yl)pyridin-2-yl)acetamide] | > 15 µM | 0.0014 µM |
| CC(=O)Nc1cc(-c2[nH]c3cc(Cl)cnc3c2-c2ncc(C)s2)ccn1 [Example 169] | 0.882 µM | 0.0023 µM |
| CC(=O)Nc1cc(-c2[nH]c3cccnc3c2-c2cn[nH]c2)ccn1 [Example 189, N-(4-(3-(1H-Pyrazol-4-yl)-1H-pyrrolo[3,2-b]pyridin-2-yl)pyridin-2-yl)acetamide] | 0.089 µM | 0.249 µM |
| CC(=O)Nc1cc(-c2[nH]c3cc(Cl)cnc3c2-c2cc(C)c(F)cn2)ccn1 [Example 44, N-{4-[6-Chloro-3-(5-fluoro-4-methylpyridin-2-yl)-1H-pyrrolo[3,2-b]pyridin-2-yl]pyridin-2-yl}acetamide] | 0.34 µM | 0.027 µM |
| CC(=O)Nc1cc(-c2[nH]c3cc(C)cnc3c2-c2csc(C)n2)ccn1 [Example 186, N-(4-(6-Methyl-3-(2-methylthiazol-4-yl)-1H-pyrrolo[3,2-b]pyridin-2-yl)pyridin-2-yl)acetamide] | 0.821 µM | 0.0029 µM |
| COc1ccc(-c2c(-c3ccnc(NC(C)=O)c3)[nH]c3c(OC)ccnc23)nc1 [Example 266, N-(4-(7-Methoxy-3-(5-methoxypyridin-2-yl)-1H-pyrrolo[3,2-b]pyridin-2-yl)pyridin-2-yl)acetamide] | > 15 µM | 0.005 µM |
| CCC(O)c1ccnc2c(-c3ccc(OC)nc3)c(-c3ccnc(NC(C)=O)c3)[nH]c12 (stereo not shown) [Example 301, N-(4-(7-(1-Hydroxypropyl)-3-(6-methoxypyridin-3-yl)-1H-pyrrolo[3,2-b]pyridin-2-yl)pyridin-2-yl)acetamide] | 0.031 µM | 0.001 µM |
| CC(=O)Nc1cc(-c2[nH]c3c(Cl)ccnc3c2-c2ccc(F)cn2)ccn1 [Example 61, N-{4-[7-Chloro-3-(5-fluoropyridin-2-yl)-1H-pyrrolo[3,2-b]pyridin-2-yl]pyridin-2-yl}acetamide] | 0.98 µM | 0.005 µM |
| CC(=O)Nc1cc(-c2[nH]c3c(CO)ccnc3c2-c2nc(C)cs2)ccn1 [Example 214, N-(4-(7-(hydroxymethyl)-3-(4-methylthiazol-2-yl)-1H-pyrrolo[3,2-b]pyridin-2-yl)pyridin-2-yl)acetamide] | 0.173 µM | 0.0014 µM |
